The text below walks through data of paper PMC11173485, “Connecting GSK-3β Inhibitory Activity with IKK-β or ROCK-1 Inhibition to Target Tau Aggregation and Neuroinflammation in Alzheimer’s Disease—Discovery, In Vitro and In Cellulo Activity of Thiazole-Based Inhibitors” (Molecules, 2024).

In brackets after ≈: the same amount, converted by molar mass.

Data set [1] has as its system okadaic acid treated HT-22 cells. The data set is described as follows: Okadaic-acid-induced tau hyperphosphorylation cell model, cell viability. To be noted: okadaic acid 400 nM; for activity in okadaic-acid-induced hyperphosphorylation assay (in words): 10, 1, and 0.1 µM; for cell viability after okadaic acid (in words): 3 h, viability after 24 h. The format is cell-based, mouse. The procedure:
We evaluated the neuroprotective properties of the selected compounds in an okadaic-acid-induced tau hyperphosphorylation cell model. Okadaic acid, acting as a phosphatase inhibitor, induces hyperphosphorylation and accumulation of neurofilaments in the cells, thereby mirroring the hyperphosphorylated, tau-induced neurodegeneration observed in AD brain [55, 56]. […] Compounds 50 and 58 were not active.
HT-22 cells were seeded into 96-well plates at a density of 2 × 10^4 cells per well. Okadaic acid (Merck) was added at a concentration of 400 nM and incubated for 3 h. After this time, 10, 1, and 0.1 µM of tested compounds were added and incubated in the aseptic conditions (37 °C, 5% CO2). Cell viability was determined using Presto Blue assay after 24 h. All data were normalized to the percentage survival of vehicle control. Data are represented as mean SD versus vehicle control.
(§1) Figure 4 (A) Results of the okadaic-acid-induced hyperphosphorylation assay. The HT-22 cells were pretreated for 3 h with okadaic acid (400 nM), and the tested compounds, at the increasing non-cytotoxic concentrations, were determined using a viability assay (or with the vehicle, 10 µM DMSO in the control sample). Cell viability was measured using the PrestoBlue^TM cell viability reagent. (B–D) Results of anti-inflammatory assays in LPS-treated (100 ng/mL) BV-2 cell line. The final compounds and references were tested at increasing non-cytotoxic concentrations and with DMSO as a control sample. NO release was measured using a fluorometric assay with 2,3-diaminonaphthalene (DAN). The IL-6 and TNF-α levels were measured using an LANCE Ultra TR-FRET Detection Kit (Perkin Elmer). Statistical analysis was performed using GraphPad Prism 9.0.0. All values are expressed as mean with SD. Differences among groups were evaluated using one-way ANOVA followed by post hoc analysis (Dunnett’s multiple comparison tests) and were considered statistically significant if p < 0.05 (* p < 0.05, ** p < 0.01, and **** p < 0.0001).

Data set [2] has as its system NO release, LPS-treated BV-2 cells. Put plainly: NO release in LPS-treated BV-2 cells (DAN fluorometric assay). In kind it is cell-based, mouse. The note with it: LPS 100 ng/mL, 18 h.
From the text: (§2) Lipopolysaccharide (LPS) is a potent pro-inflammatory stimulus triggering the extensive production of inflammatory mediators, including cytokines and chemokines. Consequently, it finds widespread application in inducing in vitro and in vivo models of sepsis and inflammation, including neuroinflammation. In this study, we employed LPS in the BV-2 cell line and assessed the impact of the selected compounds on the levels of NO, IL-6, and TNF-α production (Figure 4B–D). […] Moreover, all compounds surpassed the reference compound in these assays.
(§3) The cells were pretreated with tested compounds for 1 h. After this time, lipopolysaccharide (100 ng/mL) was added and the resulting mixture was incubated for 18 h. Next, the culture supernatant was acquired to measure the levels of nitric oxide (NO), IL-6, and TNF-α, according to the following procedures.
The NO level in the culture supernatants was measured using 2,3-diaminonaphthalene (DAN) reagent, according to the method of Nussler et al.. After 15 min of incubation at room temperature, the fluorescence intensity (EX 360; EM 440 nm) was measured using a microplate reader POLARstar Omega, (BMG Labtech). The values of nitric oxide were calculated as a percentage of control (maximal response of LPS).
as §1

The test system of data set [3] is IL-6 level, LPS-treated BV-2 cells. The data set is described as follows: IL-6 level in LPS-treated BV-2 cells (LANCE Ultra TR-FRET). The format is cell-based, mouse. To be noted: LPS 100 ng/mL, 18 h.
From the text: as §2, §3
IL-6 and TNF-α levels in the culture supernatants were measured using the LANCE Ultra TR-FRET Detection Kit (Perkin Elmer, Waltham, MA, USA), according to the manufacturer’s protocol. Each cytokine detection was performed separately in a 384-well plate, following the kit instructions. Samples were added at 15 μL/well to a 384-well plate and then premixed antibody solution was added at 5 μL/well. After 1 h of incubation of IL-6 and 3 h of incubation of TNF-α in the dark at 22 °C, the plates were read using an EnVision plate reader (Perkin Elmer) with the excitation wavelength at 320 nm, the donor emission were read at 615 nm, and the acceptor emission were read at 660 nm. The values of IL-6 and TNF-α levels were calculated as a percentage of control (maximal response of LPS).
as §1
Background: In TR-FRET formats the signal depends on donor and acceptor labels being close together.

Data set [4] can be described thus: Thermodynamic solubility assay in DPBS. In kind it is physicochemical. The note with it: for solubility at 24 h: Dulbecco's phosphate-buffered saline (DPBS), 20 °C, aqueous buffer, thermodynamic from solid, thermodynamic, 24 h shaking at room temperature, read-out: Solubility (µg/mL) ± SD. The procedure: To address potential challenges related to poorly soluble compounds, such as variable and limited intestinal absorption, we conducted thermodynamic solubility studies.
Quantitative HPLC analyses were performed similarly to the chemical stability studies. A standard solution of the tested compound was prepared in methanol at a concentration of 2 mg/mL. The standard solution was diluted with methanol to obtain five solutions with different concentrations ranging from 0.06 to 0.1 mg/mL or 0.035 to 0.05 mg/mL (for II), and they were quantified via HPLC. The calibration curve was plotted using AUC against the concentration (mg/mL). Next, 2 mg of the tested compound was dissolved in 1 mL of Dulbecco’s phosphate-buffered saline (DPBS), and the mixture was constantly agitated at 20 °C for 24 h in a thermoshaker. After that time, the mixture was filtered through a cellulose acetate syringe filter (pore size 0.22 μm) and the solution was analyzed via HPLC. The solubility of the tested compounds was calculated using the calibration curves (mg/mL).

A short description of data set [5]: Chemical stability assay in phosphate buffer pH 7.4. The format is physicochemical. The note with it: phosphate buffer pH 7.4, 37 °C, 120 min. As to the method: Before conducting the metabolic stability studies, we assessed the chemical stability of 62 and II in phosphate buffer at pH 7.4.
Quantitative HPLC analyses were acquired using Waters Alliance e2695 separations module (Waters, Milford, CT, USA), containing 2998 photodiode array (PDA), a detector (Waters, Milford, CT, USA), and a SpeedROD RP-18e 50–4.6 mm column (Merck, KGaA, Darmstadt, Germany). The temperature of the column was preserved at 30 °C. The experiment was conducted under the following conditions: a flow rate of 5 mL/min, eluent A (water/0.1% HCOOH), eluent B (MeCN/0.1% HCOOH), and a gradient starting from 0% of B to 100% of B for 3 min. Each sample was injected at a volume of 10 μL in triplicate, and the spectra were analyzed at the maximum wavelength. Potassium phosphate buffer (100 mM, pH 7.4, + 2 mM MgCl2) was incubated with the test compounds (1 µM, 0.2% DMSO) at 37 °C for 120 min (N = 2).

A short description of data set [6]: Metabolic stability in mouse liver microsomes. To be noted: % compound remaining after 15 min with mouse liver microsomes, NADPH. In kind it is in vitro ADME.
Method: Metabolic stability was assessed using pooled microsomes from the liver of male mice (CD-1) from Sigma-Aldrich (St. Louis, MO, USA). Incubations were carried out in 96-well plates. Potassium phosphate buffer (100 mM, pH 7.4, + 2 mM MgCl2) containing murine liver microsomes (0.5 mg protein/mL) was pre-incubated with test compounds or positive control (1 µM, 0.2% DMSO) at 37 °C for 15 min (N = 2). Reactions were initiated by adding NADPH (1 mM). The reactions were also incubated without NADPH to exclude non-NADPH metabolism. The reactions were terminated after 15 min via the addition of an acetonitrile quenching solution containing an internal standard (labetalol, 0.5 mM). The plates were centrifuged at 4000 rpm for 30 min at 4 °C, and an aliquot of supernatant was diluted with water before analysis via UPLC-MS/MS. The UPLC-MS/MS system consisted of a Waters Acquity Premier (Waters Corporation, Milford, MA, USA) coupled with a Waters Xevo TQ-S Cronos mass spectrometer (electrospray ionization mode ESI). […] Chromatograms were recorded using a Waters eλ PDA detector. Spectra were analyzed in the 200–700 nm range with 1.2 nm resolution and a sampling rate of 20 points/s. […]

In the case of `NC(=O)Nc1cc(-c2ccnc(NC(=O)C3CCC3)c2)sc1C(N)=O` [Compound 50, 5-(2-(Cyclobutanecarboxamido)pyridin-4-yl)-3-ureidothiophene-2-carboxamide], the “activity in okadaic-acid-induced hyperphosphorylation assay (in words)” value in data set [1] is “not active”. For the same compound, the results for the “NO level (in words)” value in data set [2] (1 µM) and in data set [2] (10 µM) were “reduced NO levels” and “significantly decreased”, respectively. In addition, in data set [3] (10 µM), the “IL-6 level (in words)” value was “significantly decreased”.
For `NC(=O)Nc1cc(-c2ccnc(NC(=O)C3CC3)c2)sc1C(N)=O` [Compound 49, 5-(2-(Cyclopropanecarboxamido)pyridin-4-yl)-3-ureidothiophene-2-carboxamide], the “cell viability after okadaic acid (in words)” value in data set [1] (1 µM compound) and in data set [1] (10 µM compound) was “increased cell viability” in each case. The “NO level (in words)” value in data set [2] (10 µM) is given as “significantly decreased”. Moreover, the “IL-6 level (in words)” value in data set [3] (1 µM) was “reduced IL-6 levels”; in data set [3] (10 µM), “significantly decreased”.
On to `NC(=O)Nc1cc(-c2cccc(NC(=O)C3CC3)c2)sc1C(N)=O` [Compound 58, 5-(3-(Cyclopropanecarboxamido)phenyl)-3-ureidothiophene-2-carboxamide], for which the “activity in okadaic-acid-induced hyperphosphorylation assay (in words)” value in data set [1] is on record as “not active”.
With `COc1nc(-c2ccnc(NC(=O)C3CC3)c2)sc1C(N)=O` [II, reference compound], in data set [4], the solubility at 24 h amounted to 5 ± 1 µg/mL (≈ 15.7 µM). The “chemical stability, % compound remaining relative to 0 min” value in data set [5] was 100%. In data set [6], the “MLM Stability (%) ± SD” value was 100 ± 0%.
`O=C1NC2(CCOC2)Nc2cc(-c3ccnc(NC(=O)C4CC4)c3)sc21` (stereo not drawn) [Compound 62, N-(4-(4′-Oxo-3′,4,4′,5-tetrahydro-1′H,2H-spiro[furan-3,2′-thieno [3,2-d]pyrimidin]-6′-yl)pyridin-2-yl)cyclopropanecarboxamide]: the “cell viability after okadaic acid (in words)” value in data set [1] (10 µM compound) is reported as “increased cell viability”. The “NO level (in words)” value in data set [2] (1 µM) is recorded as “reduced NO levels”. The “NO level (in words)” value in data set [2] (10 µM) is listed as “significantly decreased”. For the same compound, in data set [3] (10 µM), the “IL-6 level (in words)” value was “significantly decreased”. Besides, in data set [4], the “increase in solubility compared to reference compound II” value is recorded as “sixfold” and the solubility at 24 h was found to be 31 ± 1 µg/mL (≈ 83.7 µM). Besides, the “chemical stability, % compound remaining relative to 0 min” value in data set [5] is listed as 100%. In addition, the “MLM Stability (%) ± SD” value in data set [6] worked out at 100 ± 1%.
